The values that follow come from US20140296176A1, “COMBINATION CANCER THERAPY WITH AN HSP90 INHIBITOR AND AN ANTIMETABOLITE” (Synta Pharmaceuticals Corp., priority 2011, published 2014).

In general, IC50 refers to the concentration that gives 50% inhibition.

The subject of test [1] is HCT-116 colorectal cancer cells. The test can be described thus: alamarBlue cell viability assay, HCT-116 cells. Type of test: cell-based. The conditions noted are these: Homo sapiens, 72 hr drug exposure. The protocol:
Human HCT-116 colorectal cancer cells (CRC) were purchased from the American Type Culture Collection (Manassas, Va.) and grown in McCoy's 5a media (Sigma), following ATCC recommendations, in the presence of fetal bovine serum (10%), 2 mM L-glutamine and antibiotics (100 IU/ml penicillin and 100 μg/ml streptomycin, Sigma). Cells were maintained at 37° C., 5% CO2 atmosphere.
Cell viability was measured using the alamarBlue assay (Invitrogen). In brief, cells were plated in 96-well plates in triplicate at 5K cells per well and incubated at 37° C., 5% CO2 atmosphere for 24 hr prior to the addition of drug or vehicle (0.3% DMSO) to the culture medium. […] Fluorescence (560EX/590EM nM) was measured with a SpectraMax microplate reader (Molecular Devices) and the resulting data were used to calculate cell viability, normalized to vehicle control.
After HCT-116 cells were exposed to drug for 72 hr, cell viability was measured and results were fit to a four parameter logistic model (XLFit, ID Business Solutions).
Combinations between ganetespib and fluorouracil were then performed in HCT-116 cells concurrently based on the IC50 for each agent in matrix format with 54 combination pairs for each drug. The combined drugs, as well as each drug alone, were incubated with the cells for 3 days and the surviving fraction of cells relative to control was determined using the alamarBlue assay.
On the technique in general: Alamar Blue is a resazurin reagent that responds to reducing activity.

The next test relates to MOLT-4 cells. Description: alamarBlue cell viability assay, MOLT-4 cells. The class given is cell-based. The conditions noted are these: Homo sapiens, 72 hr drug exposure, four parameter logistic fit. The protocol:
Human MOLT-3, MOLT-4 and Jurkat T cell leukemia cells were purchased from the American Type Culture Collection (Manassas, Va.) and grown in RPMI (Sigma), following ATCC recommendations, in the presence of fetal bovine serum (10%), 2 mM L-glutamine and antibiotics (100 IU/ml penicillin and 100 μg/ml streptomycin, Sigma). Cells were maintained at 37° C., 5% CO2 atmosphere.
Cell viability was measured using the alamarBlue assay (Invitrogen). In brief, cells were plated in 96-well plates in triplicate at 20K, 15K or 15K cells per well for MOLT-3, MOLT-4 or Jurkat cells respectively, and incubated at 37° C., 5% CO2 atmosphere for 24 hr prior to the addition of drug or vehicle (0.3% DMSO) to the culture medium. After 72 hr, 10 μl/well Alamar Blue was added to the wells and incubated for an additional 3 hr at 37° C., 5% CO2 atmosphere. Fluorescence (560EX/590EM nM) was measured with a SpectraMax microplate reader (Molecular Devices) and the resulting data were used to calculate cell viability, normalized to vehicle control.
After MOLT-4 cells were exposed to drug for 72 hr, cell viability was measured and results were fit to a four parameter logistic model (XLFit, ID Business Solutions) shown in FIG. 1.
Combinations between ganetespib and the nucleoside analog Ara-G were then performed in MOLT-4 cells concurrently based on the IC50 for each agent. The combined drugs, as well as each drug alone, were incubated with the cells for 3 days and the surviving fraction of cells relative to control was determined using the alamarBlue assay.

Test [2] deals with human KRAS mutant NSCLC tumor xenografts. The test can be described thus: KRAS mutant NSCLC tumor xenografts in vivo. On the set-up: species or system mouse.
Test [3] relates to KRAS substrates, including BRAF and CRAF. The test can be described thus: destabilization of KRAS substrates in KRAS mutant NSCLC cells. Conditions: leading to inactivation of downstream effectors and programmed cell death. Type of test: cell-based, human.
For test [4], the system named is KRAS mutant NSCLC cell lines. The test can be described thus: cell viability in panel of KRAS mutant NSCLC cell lines. The class given is cell-based. The conditions noted are these: Homo sapiens; across 15 KRAS mutant NSCLC cell lines in vitro.
Protocol: For combinatorial analysis, cells were seeded in 96-well plates at a predetermined, optimum growth density for 24 h prior to the addition of drug or vehicle to the culture medium. Drug combinations were applied at a non-constant ratio over a range of concentrations for 72 or 96 hours. […] Cell viability was assessed by either AlamarBlue® (Invitrogen, Carlsbad, Calif.) or CellTiter-Glo® assays and normalized to vehicle controls. For each combination study, the level of growth inhibition (fraction affected) is plotted relative to vehicle control. Data are presented as one relevant combination point and the corresponding single agent data for each cell line tested.
Test [5] relates to NSCLC having a KRAS mutation. Description: Phase 2 trial with ganetespib. The class given is in vivo, human. Conditions: at 8 weeks.

For the compound `O=c1[nH]cc(F)c(=O)[nH]1` [5-FU, 5-fluorouracil, reference compound], the IC50 in test [1] was roughly 4500 nM.
As for `Nc1ccn([C@@H]2O[C@H](CO)[C@@H](O)[C@@H]2O)c(=O)n1` [Ara-C, cytarabine], the 50% inhibitory concentration (IC50) with MOLT-4 cells was roughly 25 nM.
Consider `COc1nc(N)nc2c1ncn2[C@@H]1O[C@H](CO)[C@@H](O)[C@@H]1O` [Ara-G, nelarabine], for which, in the test on MOLT-4 cells, the IC50 was roughly 2000 nM.
On to `CC(C)c1cc(-c2nnc(O)n2-c2ccc3c(ccn3C)c2)c(O)cc1O` [ganetespib, 3-(2,4-dihydroxy-5-isopropyl-phenyl)-4-(1-methyl-indol-5-yl)-5-hydroxy-[1,2,4]triazole], for which, in test [2], the “growth of tumor xenografts” value is “effectively suppressed the growth”. For the same compound, the IC50 in test [1] was roughly 32 nM; with MOLT-4 cells it was roughly 20 nM; in test [4], 24 nM. Moreover, in test [3], the “destabilization of KRAS substrates” value is “induced the destabilization”. For the same compound, the “patients exhibiting tumor shrinkage” value in test [5] is greater than 60%.
